Measurements: ChEMBL document CHEMBL4507256 (2021)

Assays:
[1] = target: Receptor-type tyrosine-protein kinase FLT3 (Homo sapiens) (UniProt P36888); conditions: Compound concentration 1000.0 nM
[2] = target: Ribosomal protein S6 kinase alpha-2 (Homo sapiens) (UniProt Q15349); conditions: Compound concentration 1000.0 nM
[3] = target: Myosin light chain kinase family member 4 (Homo sapiens) (UniProt Q86YV6); conditions: Compound concentration 1000.0 nM
[4] = test system: Epidermal growth factor receptor (Homo sapiens), P00533 [UNDEFINED MUTATION]; conditions: Compound concentration 1000.0 nM
[5] = target: Serine/threonine-protein kinase pim-1 (Homo sapiens) (UniProt P11309); conditions: Compound concentration 1000.0 nM
[6] = target: STE20/SPS1-related proline-alanine-rich protein kinase (Homo sapiens) (UniProt Q9UEW8); conditions: Compound concentration 1000.0 nM
[7] = target: Mitogen-activated protein kinase kinase kinase kinase 3 (Homo sapiens) (UniProt Q8IVH8); conditions: Compound concentration 1000.0 nM
[8] = test system: Tyrosine-protein kinase ABL1 (Homo sapiens), P00519 [T315I]; conditions: Compound concentration 1000.0 nM
[9] = target: Mitogen-activated protein kinase kinase kinase kinase 1 (Homo sapiens) (UniProt Q92918); conditions: Compound concentration 1000.0 nM
[10] = test system: Epidermal growth factor receptor (Homo sapiens), P00533 [G719C]; conditions: Compound concentration 1000.0 nM
[11] = target: MAP kinase-interacting serine/threonine-protein kinase 1 (Homo sapiens) (UniProt Q9BUB5); conditions: Compound concentration 1000.0 nM
[12] = target: Mitogen-activated protein kinase kinase kinase 15 (Homo sapiens) (UniProt Q6ZN16); conditions: Compound concentration 1000.0 nM
[13] = target: Myosin-IIIa (Homo sapiens) (UniProt Q8NEV4); conditions: Compound concentration 1000.0 nM
[14] = target: Casein kinase II subunit alpha (Homo sapiens) (UniProt P68400); conditions: Compound concentration 1000.0 nM
[15] = target: Mitogen-activated protein kinase 4 (Homo sapiens) (UniProt P31152); conditions: Compound concentration 1000.0 nM
[16] = target: Ribosomal protein S6 kinase alpha-1 (Homo sapiens) (UniProt Q15418); conditions: Compound concentration 1000.0 nM
[17] = target: Serine/threonine-protein kinase MAK (Homo sapiens) (UniProt P20794); conditions: Compound concentration 1000.0 nM
[18] = target: Alpha-2B adrenergic receptor (Homo sapiens) (UniProt P18089); conditions: Compound concentration 10.0 uM
[19] = target: Mitogen-activated protein kinase kinase kinase 5 (Homo sapiens) (UniProt Q99683); conditions: Compound concentration 1000.0 nM
[20] = target: SRSF protein kinase 3 (Homo sapiens) (UniProt Q9UPE1); conditions: Compound concentration 1000.0 nM
[21] = target: Tyrosine-protein kinase Lyn (Homo sapiens) (UniProt P07948); conditions: Compound concentration 1000.0 nM
[22] = target: Serine/threonine-protein kinase Sgk1 (Homo sapiens) (UniProt O00141); conditions: Compound concentration 1000.0 nM
[23] = target: Bone morphogenetic protein receptor type-1B (Homo sapiens) (UniProt O00238); conditions: Compound concentration 1000.0 nM
[24] = target: Calcium/calmodulin-dependent protein kinase type 1D (Homo sapiens) (UniProt Q8IU85); conditions: Compound concentration 1000.0 nM
[25] = target: Tyrosine-protein kinase receptor Tie-1 (Homo sapiens) (UniProt P35590); conditions: Compound concentration 1000.0 nM
[26] = target: 5-hydroxytryptamine receptor 1A (Homo sapiens) (UniProt P08908); conditions: Compound concentration 10.0 uM
[27] = target: Cyclin-dependent kinase 4 (Homo sapiens) (UniProt P11802); conditions: Compound concentration 1000.0 nM
[28] = target: Epidermal growth factor receptor (Homo sapiens) (UniProt P00533); conditions: Compound concentration 1000.0 nM
[29] = target: Tyrosine-protein kinase BTK (Homo sapiens) (UniProt Q06187); conditions: Compound concentration 1000.0 nM
[30] = target: Wee1-like protein kinase (Homo sapiens) (UniProt P30291); conditions: Compound concentration 1000.0 nM
[31] = target: Serine/threonine-protein kinase 26 (Homo sapiens) (UniProt Q9P289); conditions: Compound concentration 1000.0 nM
[32] = target: Ribosomal protein S6 kinase alpha-3 (Homo sapiens) (UniProt P51812); conditions: Compound concentration 1000.0 nM
[33] = target: Inhibitor of nuclear factor kappa-B kinase subunit beta (Homo sapiens) (UniProt O14920); conditions: Compound concentration 1000.0 nM
[34] = target: Activin receptor type-1-like (Homo sapiens) (UniProt P37023); conditions: Compound concentration 1000.0 nM
[35] = target: Serine/threonine-protein kinase ULK2 (Homo sapiens) (UniProt Q8IYT8); conditions: Compound concentration 1000.0 nM
[36] = target: Mitogen-activated protein kinase 1 (Homo sapiens) (UniProt P28482); conditions: Compound concentration 1000.0 nM
[37] = target: Phosphatidylinositol 3-kinase C2 domain-containing subunit gamma (Homo sapiens) (UniProt O75747); conditions: Compound concentration 1000.0 nM
[38] = target: Serine/threonine-protein kinase WNK3 (Homo sapiens) (UniProt Q9BYP7); conditions: Compound concentration 1000.0 nM
[39] = target: Cyclin-dependent kinase 17 (Homo sapiens) (UniProt Q00537); conditions: Compound concentration 1000.0 nM
[40] = target: Protein-tyrosine kinase 6 (Homo sapiens) (UniProt Q13882); conditions: Compound concentration 1000.0 nM
[41] = test system: Receptor-type tyrosine-protein kinase FLT3 (Homo sapiens), P36888 [N841I]; conditions: Compound concentration 1000.0 nM
[42] = target: Protein kinase C theta type (Homo sapiens) (UniProt Q04759); conditions: Compound concentration 1000.0 nM
[43] = target: Phosphatidylinositol 3-kinase catalytic subunit type 3 (Homo sapiens) (UniProt Q8NEB9); conditions: Compound concentration 1000.0 nM
[44] = target: Testis-specific serine/threonine-protein kinase 3 (Homo sapiens) (UniProt Q96PN8); conditions: Compound concentration 1000.0 nM
[45] = target: NT-3 growth factor receptor (Homo sapiens) (UniProt Q16288); conditions: Compound concentration 1000.0 nM

Chain of SRSF protein kinase 3 (Homo sapiens) (Q9UPE1 whole entry): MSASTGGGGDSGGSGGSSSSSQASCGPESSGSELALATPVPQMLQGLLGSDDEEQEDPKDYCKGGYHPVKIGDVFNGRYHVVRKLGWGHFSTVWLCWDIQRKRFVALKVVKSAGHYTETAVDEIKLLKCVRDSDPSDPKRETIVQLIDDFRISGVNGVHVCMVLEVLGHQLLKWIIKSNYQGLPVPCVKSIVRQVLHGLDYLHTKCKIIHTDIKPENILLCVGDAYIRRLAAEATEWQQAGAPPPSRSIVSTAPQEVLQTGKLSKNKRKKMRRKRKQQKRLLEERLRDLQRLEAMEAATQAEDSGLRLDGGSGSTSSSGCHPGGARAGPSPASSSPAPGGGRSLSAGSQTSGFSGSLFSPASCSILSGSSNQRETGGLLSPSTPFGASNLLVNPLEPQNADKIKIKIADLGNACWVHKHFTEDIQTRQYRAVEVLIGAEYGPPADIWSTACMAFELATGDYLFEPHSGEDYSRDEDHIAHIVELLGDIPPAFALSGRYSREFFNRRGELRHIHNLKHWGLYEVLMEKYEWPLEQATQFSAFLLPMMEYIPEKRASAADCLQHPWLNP
Chain of Serine/threonine-protein kinase Sgk1 (Homo sapiens) (O00141 whole entry): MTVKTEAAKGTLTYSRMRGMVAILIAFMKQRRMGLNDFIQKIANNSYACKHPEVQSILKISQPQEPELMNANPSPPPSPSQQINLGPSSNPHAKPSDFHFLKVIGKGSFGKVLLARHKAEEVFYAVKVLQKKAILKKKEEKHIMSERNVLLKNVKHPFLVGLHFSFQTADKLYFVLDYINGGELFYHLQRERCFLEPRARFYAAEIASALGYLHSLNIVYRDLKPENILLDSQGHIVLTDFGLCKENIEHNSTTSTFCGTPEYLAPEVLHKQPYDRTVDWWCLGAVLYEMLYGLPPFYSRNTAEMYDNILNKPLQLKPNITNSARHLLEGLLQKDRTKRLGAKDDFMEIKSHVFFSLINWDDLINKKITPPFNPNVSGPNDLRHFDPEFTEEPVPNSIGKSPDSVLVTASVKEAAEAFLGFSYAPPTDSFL
Chain of Serine/threonine-protein kinase MAK (Homo sapiens) (P20794 whole entry): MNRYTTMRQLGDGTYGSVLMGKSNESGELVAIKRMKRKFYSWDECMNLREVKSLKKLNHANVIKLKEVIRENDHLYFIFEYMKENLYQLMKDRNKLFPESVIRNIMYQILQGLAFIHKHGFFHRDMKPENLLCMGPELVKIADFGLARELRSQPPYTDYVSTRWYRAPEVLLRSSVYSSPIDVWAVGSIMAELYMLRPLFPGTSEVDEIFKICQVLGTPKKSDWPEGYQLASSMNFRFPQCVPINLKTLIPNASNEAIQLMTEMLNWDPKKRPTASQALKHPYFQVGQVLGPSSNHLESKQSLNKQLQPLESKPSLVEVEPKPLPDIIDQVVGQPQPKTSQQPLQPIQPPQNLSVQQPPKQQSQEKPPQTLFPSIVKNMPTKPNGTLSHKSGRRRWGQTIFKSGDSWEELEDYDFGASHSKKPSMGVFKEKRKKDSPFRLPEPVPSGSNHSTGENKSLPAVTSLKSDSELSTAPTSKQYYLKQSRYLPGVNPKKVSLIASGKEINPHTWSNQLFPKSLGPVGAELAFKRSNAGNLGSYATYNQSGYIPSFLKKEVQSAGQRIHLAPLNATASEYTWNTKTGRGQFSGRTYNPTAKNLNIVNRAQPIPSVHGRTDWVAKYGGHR
Chain of Mitogen-activated protein kinase 4 (Homo sapiens) (P31152 whole entry): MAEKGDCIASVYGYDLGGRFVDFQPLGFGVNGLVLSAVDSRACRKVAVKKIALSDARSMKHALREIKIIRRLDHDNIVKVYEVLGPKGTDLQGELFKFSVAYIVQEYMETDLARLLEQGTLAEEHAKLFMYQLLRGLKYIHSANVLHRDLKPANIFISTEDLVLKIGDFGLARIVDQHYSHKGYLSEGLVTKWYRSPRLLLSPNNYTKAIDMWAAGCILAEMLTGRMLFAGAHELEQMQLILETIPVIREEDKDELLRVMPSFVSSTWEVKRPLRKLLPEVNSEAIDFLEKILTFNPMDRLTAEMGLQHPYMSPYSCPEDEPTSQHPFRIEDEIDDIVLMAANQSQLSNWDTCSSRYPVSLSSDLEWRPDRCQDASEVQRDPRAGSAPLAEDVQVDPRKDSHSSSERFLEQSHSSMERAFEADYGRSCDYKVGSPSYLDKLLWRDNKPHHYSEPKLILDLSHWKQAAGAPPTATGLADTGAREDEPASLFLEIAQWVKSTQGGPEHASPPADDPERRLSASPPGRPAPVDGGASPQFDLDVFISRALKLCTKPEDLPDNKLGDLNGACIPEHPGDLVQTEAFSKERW
Chain of Mitogen-activated protein kinase 1 (Homo sapiens) (P28482 whole entry, the tested form may be a part): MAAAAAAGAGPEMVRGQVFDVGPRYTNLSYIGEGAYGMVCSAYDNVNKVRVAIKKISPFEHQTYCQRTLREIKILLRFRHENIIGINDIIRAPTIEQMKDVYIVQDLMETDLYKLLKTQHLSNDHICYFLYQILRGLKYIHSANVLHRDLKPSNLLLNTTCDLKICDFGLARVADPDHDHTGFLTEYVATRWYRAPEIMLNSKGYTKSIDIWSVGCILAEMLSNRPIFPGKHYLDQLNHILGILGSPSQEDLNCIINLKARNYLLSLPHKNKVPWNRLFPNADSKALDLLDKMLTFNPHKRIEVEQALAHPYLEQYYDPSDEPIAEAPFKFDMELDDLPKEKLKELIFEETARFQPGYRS
Chain of Phosphatidylinositol 3-kinase catalytic subunit type 3 (Homo sapiens) (Q8NEB9 whole entry): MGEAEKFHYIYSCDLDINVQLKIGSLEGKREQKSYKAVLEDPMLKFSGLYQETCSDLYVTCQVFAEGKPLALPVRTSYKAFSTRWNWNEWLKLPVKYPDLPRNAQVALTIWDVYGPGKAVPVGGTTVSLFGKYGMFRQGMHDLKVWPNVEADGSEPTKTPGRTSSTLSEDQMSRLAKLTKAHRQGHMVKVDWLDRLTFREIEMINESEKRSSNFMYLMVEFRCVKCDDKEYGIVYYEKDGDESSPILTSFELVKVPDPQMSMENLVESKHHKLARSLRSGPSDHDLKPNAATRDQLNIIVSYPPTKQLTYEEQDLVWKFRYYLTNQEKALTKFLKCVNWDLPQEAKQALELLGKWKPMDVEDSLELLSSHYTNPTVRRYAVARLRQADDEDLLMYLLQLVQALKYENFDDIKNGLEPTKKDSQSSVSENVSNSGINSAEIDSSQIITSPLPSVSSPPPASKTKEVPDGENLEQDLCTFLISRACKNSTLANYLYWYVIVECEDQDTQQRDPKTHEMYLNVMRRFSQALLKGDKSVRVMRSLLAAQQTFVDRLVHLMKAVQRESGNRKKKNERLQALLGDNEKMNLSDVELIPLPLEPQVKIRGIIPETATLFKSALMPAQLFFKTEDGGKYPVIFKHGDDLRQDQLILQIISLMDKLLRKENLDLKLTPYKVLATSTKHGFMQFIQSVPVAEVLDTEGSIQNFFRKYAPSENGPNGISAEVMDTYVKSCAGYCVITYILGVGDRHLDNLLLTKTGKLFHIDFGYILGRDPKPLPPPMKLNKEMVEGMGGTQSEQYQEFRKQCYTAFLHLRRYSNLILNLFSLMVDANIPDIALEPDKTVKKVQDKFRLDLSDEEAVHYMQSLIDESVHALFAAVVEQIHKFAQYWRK
Chain of Protein-tyrosine kinase 6 (Homo sapiens) (Q13882 whole entry, looked up): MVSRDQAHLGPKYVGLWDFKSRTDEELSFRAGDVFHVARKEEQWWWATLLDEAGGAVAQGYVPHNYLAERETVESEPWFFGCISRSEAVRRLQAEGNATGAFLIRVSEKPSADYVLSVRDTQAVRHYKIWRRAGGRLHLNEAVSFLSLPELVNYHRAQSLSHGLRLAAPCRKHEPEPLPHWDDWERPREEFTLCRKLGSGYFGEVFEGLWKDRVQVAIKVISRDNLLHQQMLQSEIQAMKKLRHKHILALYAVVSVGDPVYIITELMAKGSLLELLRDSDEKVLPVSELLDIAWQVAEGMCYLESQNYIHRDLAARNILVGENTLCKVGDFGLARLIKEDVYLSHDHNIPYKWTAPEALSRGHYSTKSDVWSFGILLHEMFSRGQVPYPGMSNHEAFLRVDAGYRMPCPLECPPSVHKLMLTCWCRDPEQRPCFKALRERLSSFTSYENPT
Chain of Ribosomal protein S6 kinase alpha-2 (Homo sapiens) (Q15349 whole entry): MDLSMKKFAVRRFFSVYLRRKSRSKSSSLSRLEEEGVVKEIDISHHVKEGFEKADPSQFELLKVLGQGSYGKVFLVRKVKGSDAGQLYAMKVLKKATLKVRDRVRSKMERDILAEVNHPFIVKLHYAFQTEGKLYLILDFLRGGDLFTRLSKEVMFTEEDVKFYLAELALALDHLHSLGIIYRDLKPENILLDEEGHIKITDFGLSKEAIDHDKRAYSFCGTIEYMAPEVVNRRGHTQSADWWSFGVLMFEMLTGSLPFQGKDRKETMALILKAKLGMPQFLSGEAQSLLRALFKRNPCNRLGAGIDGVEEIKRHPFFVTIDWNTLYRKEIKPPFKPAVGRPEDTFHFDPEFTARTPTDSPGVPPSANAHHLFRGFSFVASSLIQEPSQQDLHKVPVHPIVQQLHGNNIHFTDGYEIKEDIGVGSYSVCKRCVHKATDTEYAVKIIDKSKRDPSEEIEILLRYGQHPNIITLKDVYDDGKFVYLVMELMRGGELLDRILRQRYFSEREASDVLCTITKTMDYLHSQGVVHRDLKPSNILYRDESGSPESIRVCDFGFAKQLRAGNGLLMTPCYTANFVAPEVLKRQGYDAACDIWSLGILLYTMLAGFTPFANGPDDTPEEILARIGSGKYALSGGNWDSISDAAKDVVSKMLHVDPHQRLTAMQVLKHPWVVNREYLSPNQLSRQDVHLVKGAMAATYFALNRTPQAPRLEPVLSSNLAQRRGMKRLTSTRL
Chain of Testis-specific serine/threonine-protein kinase 3 (Homo sapiens) (Q96PN8 whole entry): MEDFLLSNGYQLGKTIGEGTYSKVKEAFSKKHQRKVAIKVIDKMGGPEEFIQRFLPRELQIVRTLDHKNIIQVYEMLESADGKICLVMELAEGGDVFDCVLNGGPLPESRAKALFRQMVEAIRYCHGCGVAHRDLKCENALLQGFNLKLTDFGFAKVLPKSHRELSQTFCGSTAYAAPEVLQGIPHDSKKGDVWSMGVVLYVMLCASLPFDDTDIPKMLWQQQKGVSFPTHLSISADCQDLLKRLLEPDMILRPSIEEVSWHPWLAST

CCC(=N\O)/C(C)=C/c1ccc(F)cc1 [A-079]
inactive: residual activity [1] 100% | residual activity [2] 85% | residual activity [3] 94% | residual activity [4] 65% | residual activity [5] 85% | residual activity [6] 94% | residual activity [7] 100% | residual activity [8] 75% | residual activity [9] 92% | residual activity [10] 64% | residual activity [11] 56% | residual activity [12] 100% | residual activity [13] 100% | residual activity [14] 74% | residual activity [15] 75% | residual activity [16] 100% | residual activity [17] 100% | inhibition [18] 15.1% | residual activity [19] 93% | residual activity [20] 91% | residual activity [21] 87% | residual activity [22] 89% | residual activity [23] 87% | residual activity [24] 100% | residual activity [25] 63% | inhibition [26] 6.81% | residual activity [27] 100% | residual activity [28] 60% | residual activity [29] 78% | residual activity [30] 97% | residual activity [31] 81% | residual activity [32] 81% | residual activity [33] 83% | residual activity [34] 76% | residual activity [36] 71% | residual activity [37] 75% | residual activity [38] 75% | residual activity [39] 90% | residual activity [40] 100% | residual activity [41] 74% | residual activity [42] 80% | residual activity [43] 83% | residual activity [44] 99% | residual activity [45] 88%
active: residual activity [35] 46%

CCC(=N\O)/C(C)=C/c1ccc(F)c(C)c1 [A-226]
active: residual activity [41] 49%
inactive: residual activity [1] 93% | residual activity [2] 100% | residual activity [3] 99% | residual activity [4] 73% | residual activity [5] 70% | residual activity [6] 100% | residual activity [7] 98% | residual activity [8] 100% | residual activity [9] 100% | residual activity [10] 83% | residual activity [11] 100% | residual activity [12] 69% | residual activity [13] 94% | residual activity [14] 100% | residual activity [15] 96% | residual activity [16] 100% | residual activity [17] 100% | inhibition [18] 33.1% | residual activity [19] 100% | residual activity [20] 100% | residual activity [21] 100% | residual activity [22] 100% | residual activity [23] 80% | residual activity [24] 92% | residual activity [25] 100% | inhibition [26] 1.12% | residual activity [27] 100% | residual activity [28] 100% | residual activity [29] 100% | residual activity [30] 94% | residual activity [31] 100% | residual activity [32] 100% | residual activity [33] 100% | residual activity [34] 98% | residual activity [35] 100% | residual activity [36] 92% | residual activity [37] 98% | residual activity [38] 100% | residual activity [39] 99% | residual activity [40] 75% | residual activity [42] 88% | residual activity [43] 100% | residual activity [44] 100% | residual activity [45] 100%
